Test results from ChEMBL document CHEMBL4118098, “Discovery of DS28120313 as a potent orally active hepcidin production inhibitor: Design and optimization of novel 4,6-disubstituted indazole derivatives” (Bioorg Med Chem Lett, 2017).

Tests used:
[1] = biological target: Mitogen-activated protein kinase 1 (Homo sapiens) (UniProt P28482); assay: Inhibition of Erk2 (unknown origin) at 0.45 uM relative to control
[2] = biological target: T1, cGMP-dependent protein kinase 1 (Homo sapiens) (UniProt Q13976); assay: Inhibition of PKG-alpha (unknown origin) at 0.45 uM relative to control
T1 sequence (whole entry): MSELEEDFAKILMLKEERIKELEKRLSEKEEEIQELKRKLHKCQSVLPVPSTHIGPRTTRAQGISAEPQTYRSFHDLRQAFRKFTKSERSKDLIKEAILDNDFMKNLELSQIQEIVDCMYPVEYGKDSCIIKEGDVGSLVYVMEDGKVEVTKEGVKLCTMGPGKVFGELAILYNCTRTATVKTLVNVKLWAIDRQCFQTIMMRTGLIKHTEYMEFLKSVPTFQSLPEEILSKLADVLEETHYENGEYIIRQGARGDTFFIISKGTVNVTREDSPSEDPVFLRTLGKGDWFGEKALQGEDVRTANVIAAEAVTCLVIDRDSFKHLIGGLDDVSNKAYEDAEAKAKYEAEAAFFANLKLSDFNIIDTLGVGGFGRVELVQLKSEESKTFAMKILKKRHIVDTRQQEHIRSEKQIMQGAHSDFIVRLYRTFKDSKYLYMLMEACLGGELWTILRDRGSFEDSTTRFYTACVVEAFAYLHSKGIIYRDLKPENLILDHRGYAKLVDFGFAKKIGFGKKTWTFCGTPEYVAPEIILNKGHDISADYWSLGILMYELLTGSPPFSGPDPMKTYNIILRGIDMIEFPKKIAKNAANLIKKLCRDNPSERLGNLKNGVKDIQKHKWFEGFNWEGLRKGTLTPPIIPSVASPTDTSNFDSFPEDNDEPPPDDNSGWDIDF

[3] = biological target: Tyrosine-protein kinase Fes/Fps (Homo sapiens) (UniProt P07332); assay: Inhibition of FES (unknown origin) at 0.45 uM relative to control
[4] = biological target: Epidermal growth factor receptor (Homo sapiens) (UniProt P00533); assay: Inhibition of EGFR (unknown origin) at 0.45 uM relative to control
[5] = biological target: Aurora kinase A (Homo sapiens) (UniProt O14965); assay: Inhibition of AurA (unknown origin) at 0.19 uM relative to control
[6] = biological target: Tyrosine-protein kinase ABL1 (Homo sapiens) (UniProt P00519); assay: Inhibition of ABL (unknown origin) at 0.19 uM relative to control
[7] = biological target: Glycogen synthase kinase-3 beta (Homo sapiens) (UniProt P49841); assay: Inhibition of GSK3b (unknown origin) at 0.19 uM relative to control
[8] = biological target: Insulin receptor (Homo sapiens) (UniProt P06213); assay: Inhibition of INSR (unknown origin) at 0.19 uM relative to control
[9] = biological target: Serine/threonine-protein kinase Sgk3 (Homo sapiens) (UniProt Q96BR1); assay: Inhibition of SGK3 (unknown origin) at 0.19 uM relative to control
[10] = biological target: Serine/threonine-protein kinase DCLK2 (Homo sapiens) (UniProt Q8N568); assay: Inhibition of DCAMKL2 (unknown origin) at 0.19 uM relative to control
[11] = biological target: Proto-oncogene tyrosine-protein kinase ROS (Homo sapiens) (UniProt P08922); assay: Inhibition of ROS (unknown origin) at 0.19 uM relative to control
[12] = biological target: Tyrosine-protein kinase ITK/TSK (Homo sapiens) (UniProt Q08881); assay: Inhibition of ITK (unknown origin) at 0.19 uM relative to control
[13] = biological target: Tyrosine-protein kinase receptor UFO (Homo sapiens) (UniProt P30530); assay: Inhibition of AXL (unknown origin) at 0.19 uM relative to control
[14] = biological target: Tyrosine-protein kinase BTK (Homo sapiens) (UniProt Q06187); assay: Inhibition of BTK (unknown origin) at 0.19 uM relative to control
[15] = tested on: Tyrosine-protein kinase ABL1 (Homo sapiens), P00519 [E255K]; assay: Inhibition of ABL1 E255K mutant (unknown origin) at 0.19 uM relative to control
[16] = tested on: Tyrosine-protein kinase ABL1 (Homo sapiens), P00519 [Y253F]; assay: Inhibition of ABL1 Y253F mutant (unknown origin) at 0.19 uM relative to control
[17] = biological target: T1, cGMP-dependent protein kinase 1 (Homo sapiens); assay: Inhibition of PKG1-beta (unknown origin) at 0.19 uM relative to control
[18] = biological target: Phosphorylase b kinase gamma catalytic chain, liver/testis isoform (Homo sapiens) (UniProt P15735); assay: Inhibition of PhKg2 (unknown origin) at 0.19 uM relative to control
[19] = biological target: Dual specificity protein kinase CLK3 (Homo sapiens) (UniProt P49761); assay: Inhibition of CLK3 (unknown origin) at 0.19 uM relative to control
[20] = biological target: Mitogen-activated protein kinase 14 (Homo sapiens) (UniProt Q16539); assay: Inhibition of p38a (unknown origin) at 0.164 uM relative to control
[21] = biological target: Casein kinase I isoform alpha (Homo sapiens) (UniProt P48729); assay: Inhibition of CSNK1A1 (unknown origin) at 0.164 uM relative to control
[22] = biological target: Protein kinase C epsilon type (Homo sapiens) (UniProt Q02156); assay: Inhibition of PKC-epsilon (unknown origin) at 0.164 uM relative to control
[23] = biological target: Protein kinase C theta type (Homo sapiens) (UniProt Q04759); assay: Inhibition of PKC-theta (unknown origin) at 0.164 uM relative to control
[24] = biological target: T1, cGMP-dependent protein kinase 1 (Homo sapiens); assay: Inhibition of PKG-alpha (unknown origin) at 0.164 uM relative to control
[25] = biological target: Leukocyte tyrosine kinase receptor (Homo sapiens) (UniProt P29376); assay: Inhibition of LTK (unknown origin) at 0.164 uM relative to control
[26] = biological target: T2, Testis-specific serine/threonine-protein kinase 1 (Homo sapiens) (UniProt Q9BXA7); assay: Inhibition of TSSK1 (unknown origin) at 0.164 uM relative to control
T2 sequence (whole entry): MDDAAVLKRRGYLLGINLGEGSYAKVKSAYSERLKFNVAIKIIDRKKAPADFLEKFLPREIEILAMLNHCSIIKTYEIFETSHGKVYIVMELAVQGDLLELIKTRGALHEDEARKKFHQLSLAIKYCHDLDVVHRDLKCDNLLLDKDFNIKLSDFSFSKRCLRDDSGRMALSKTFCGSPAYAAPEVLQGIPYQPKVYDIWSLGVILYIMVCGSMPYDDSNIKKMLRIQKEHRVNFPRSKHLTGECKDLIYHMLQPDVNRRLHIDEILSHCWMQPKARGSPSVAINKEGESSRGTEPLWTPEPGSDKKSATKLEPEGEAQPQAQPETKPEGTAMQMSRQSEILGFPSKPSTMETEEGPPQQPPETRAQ

[27] = biological target: Dual specificity protein kinase CLK2 (Homo sapiens) (UniProt P49760); assay: Inhibition of CLK2 (unknown origin) at 0.164 uM relative to control

Casein kinase I isoform alpha (Homo sapiens), sequence (P48729 2-337 limits assumed): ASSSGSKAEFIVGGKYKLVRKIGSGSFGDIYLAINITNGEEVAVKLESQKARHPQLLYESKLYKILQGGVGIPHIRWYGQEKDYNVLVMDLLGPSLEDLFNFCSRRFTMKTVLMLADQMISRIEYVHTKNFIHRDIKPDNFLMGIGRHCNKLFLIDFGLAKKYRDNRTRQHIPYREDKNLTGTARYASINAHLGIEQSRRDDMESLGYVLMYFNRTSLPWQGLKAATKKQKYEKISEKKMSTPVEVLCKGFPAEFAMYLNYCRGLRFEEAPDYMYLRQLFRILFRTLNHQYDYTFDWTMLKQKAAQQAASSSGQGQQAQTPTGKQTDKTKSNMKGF
Tyrosine-protein kinase ITK/TSK (Homo sapiens), sequence (Q08881 whole entry): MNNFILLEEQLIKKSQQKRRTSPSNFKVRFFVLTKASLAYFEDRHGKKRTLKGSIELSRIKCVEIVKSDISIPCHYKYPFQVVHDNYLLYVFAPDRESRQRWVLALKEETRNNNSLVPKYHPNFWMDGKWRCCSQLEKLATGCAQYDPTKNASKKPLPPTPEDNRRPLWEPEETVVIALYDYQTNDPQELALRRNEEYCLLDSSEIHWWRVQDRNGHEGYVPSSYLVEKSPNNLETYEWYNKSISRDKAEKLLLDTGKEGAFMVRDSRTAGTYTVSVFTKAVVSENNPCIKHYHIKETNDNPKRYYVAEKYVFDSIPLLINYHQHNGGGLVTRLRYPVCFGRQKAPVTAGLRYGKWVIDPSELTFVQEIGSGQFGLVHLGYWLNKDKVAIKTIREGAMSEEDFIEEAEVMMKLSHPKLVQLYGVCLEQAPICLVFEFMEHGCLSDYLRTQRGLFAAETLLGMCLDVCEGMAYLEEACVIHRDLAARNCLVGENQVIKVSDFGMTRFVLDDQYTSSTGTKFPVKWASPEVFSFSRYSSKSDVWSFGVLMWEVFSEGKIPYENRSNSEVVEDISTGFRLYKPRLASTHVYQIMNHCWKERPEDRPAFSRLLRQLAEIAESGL
Aurora kinase A (Homo sapiens), sequence (O14965 whole entry): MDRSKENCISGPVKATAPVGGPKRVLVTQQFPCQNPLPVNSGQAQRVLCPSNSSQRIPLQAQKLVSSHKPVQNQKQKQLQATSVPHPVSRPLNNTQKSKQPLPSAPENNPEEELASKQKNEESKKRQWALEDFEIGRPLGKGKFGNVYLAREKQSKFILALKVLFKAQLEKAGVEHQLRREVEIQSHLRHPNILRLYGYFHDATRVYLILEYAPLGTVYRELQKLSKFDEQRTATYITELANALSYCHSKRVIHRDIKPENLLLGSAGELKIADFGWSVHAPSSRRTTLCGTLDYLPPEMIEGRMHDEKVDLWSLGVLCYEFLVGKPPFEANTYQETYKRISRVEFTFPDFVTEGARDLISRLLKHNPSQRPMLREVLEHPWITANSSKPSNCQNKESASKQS
Leukocyte tyrosine kinase receptor (Homo sapiens), sequence (P29376 whole entry): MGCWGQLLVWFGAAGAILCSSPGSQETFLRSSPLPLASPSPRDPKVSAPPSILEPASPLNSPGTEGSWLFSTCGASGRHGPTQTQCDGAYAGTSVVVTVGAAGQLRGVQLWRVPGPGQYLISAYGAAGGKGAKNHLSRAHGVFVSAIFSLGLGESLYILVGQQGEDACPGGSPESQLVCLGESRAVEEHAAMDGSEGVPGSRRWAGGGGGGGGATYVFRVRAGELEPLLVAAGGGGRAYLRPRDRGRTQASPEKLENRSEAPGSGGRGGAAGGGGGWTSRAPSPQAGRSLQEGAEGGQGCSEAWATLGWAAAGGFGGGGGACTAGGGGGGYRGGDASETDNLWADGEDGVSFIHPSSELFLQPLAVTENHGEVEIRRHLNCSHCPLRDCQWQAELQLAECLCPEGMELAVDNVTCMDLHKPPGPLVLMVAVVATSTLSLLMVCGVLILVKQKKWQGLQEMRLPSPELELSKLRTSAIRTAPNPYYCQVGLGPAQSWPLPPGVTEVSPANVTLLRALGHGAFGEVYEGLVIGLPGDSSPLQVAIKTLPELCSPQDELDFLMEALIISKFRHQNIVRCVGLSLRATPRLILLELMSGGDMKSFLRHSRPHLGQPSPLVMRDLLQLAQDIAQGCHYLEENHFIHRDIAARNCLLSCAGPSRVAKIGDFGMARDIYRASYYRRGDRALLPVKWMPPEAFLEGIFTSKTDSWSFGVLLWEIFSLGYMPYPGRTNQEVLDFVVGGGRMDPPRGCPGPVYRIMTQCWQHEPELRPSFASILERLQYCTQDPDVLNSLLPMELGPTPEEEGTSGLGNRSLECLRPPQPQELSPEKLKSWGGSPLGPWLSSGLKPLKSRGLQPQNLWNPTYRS
Epidermal growth factor receptor (Homo sapiens), sequence (P00533 whole entry): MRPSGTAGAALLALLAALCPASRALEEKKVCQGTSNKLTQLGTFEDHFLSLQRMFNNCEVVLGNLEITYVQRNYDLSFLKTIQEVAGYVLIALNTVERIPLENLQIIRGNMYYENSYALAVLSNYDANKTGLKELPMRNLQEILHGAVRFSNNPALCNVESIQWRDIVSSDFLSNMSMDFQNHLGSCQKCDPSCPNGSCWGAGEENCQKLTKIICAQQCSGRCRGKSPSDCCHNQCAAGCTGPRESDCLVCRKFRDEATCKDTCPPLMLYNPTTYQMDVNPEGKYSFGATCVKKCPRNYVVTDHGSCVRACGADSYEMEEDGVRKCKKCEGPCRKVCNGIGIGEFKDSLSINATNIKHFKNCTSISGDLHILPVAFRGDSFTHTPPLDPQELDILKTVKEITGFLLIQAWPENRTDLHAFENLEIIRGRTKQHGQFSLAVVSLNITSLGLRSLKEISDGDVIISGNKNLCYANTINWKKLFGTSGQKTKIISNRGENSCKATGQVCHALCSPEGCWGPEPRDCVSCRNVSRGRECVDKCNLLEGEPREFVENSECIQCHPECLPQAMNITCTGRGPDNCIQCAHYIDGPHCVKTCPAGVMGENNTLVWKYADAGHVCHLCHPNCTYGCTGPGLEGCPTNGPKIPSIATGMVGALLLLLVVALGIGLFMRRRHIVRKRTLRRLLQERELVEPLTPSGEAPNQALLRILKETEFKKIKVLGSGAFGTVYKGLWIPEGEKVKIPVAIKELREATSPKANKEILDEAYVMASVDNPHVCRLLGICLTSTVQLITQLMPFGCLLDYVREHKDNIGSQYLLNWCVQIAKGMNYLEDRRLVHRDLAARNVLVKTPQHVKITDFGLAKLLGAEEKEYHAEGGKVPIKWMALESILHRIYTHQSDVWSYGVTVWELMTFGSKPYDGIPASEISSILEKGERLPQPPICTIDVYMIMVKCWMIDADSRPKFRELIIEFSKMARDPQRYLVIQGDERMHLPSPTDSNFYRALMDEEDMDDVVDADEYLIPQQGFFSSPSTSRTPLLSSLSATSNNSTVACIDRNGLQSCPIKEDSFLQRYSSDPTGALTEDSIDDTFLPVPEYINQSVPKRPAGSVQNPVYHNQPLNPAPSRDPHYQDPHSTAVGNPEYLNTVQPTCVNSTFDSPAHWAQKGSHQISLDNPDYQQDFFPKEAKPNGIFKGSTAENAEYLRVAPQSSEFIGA
Serine/threonine-protein kinase Sgk3 (Homo sapiens), sequence (Q96BR1 whole entry): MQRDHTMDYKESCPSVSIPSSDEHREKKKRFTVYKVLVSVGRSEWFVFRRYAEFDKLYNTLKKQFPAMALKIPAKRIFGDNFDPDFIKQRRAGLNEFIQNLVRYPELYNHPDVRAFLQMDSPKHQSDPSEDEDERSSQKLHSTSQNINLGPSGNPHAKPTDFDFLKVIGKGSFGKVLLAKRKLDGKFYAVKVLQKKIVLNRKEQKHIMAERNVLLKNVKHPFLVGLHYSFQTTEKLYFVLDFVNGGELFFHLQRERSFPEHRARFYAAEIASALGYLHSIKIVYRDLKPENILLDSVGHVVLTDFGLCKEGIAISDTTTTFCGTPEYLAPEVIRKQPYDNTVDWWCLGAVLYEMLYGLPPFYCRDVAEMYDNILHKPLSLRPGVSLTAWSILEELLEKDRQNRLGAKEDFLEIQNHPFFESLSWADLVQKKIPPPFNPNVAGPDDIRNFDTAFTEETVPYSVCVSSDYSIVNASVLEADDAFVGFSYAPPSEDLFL
Phosphorylase b kinase gamma catalytic chain, liver/testis isoform (Homo sapiens), sequence (P15735 whole entry, canonical isoform): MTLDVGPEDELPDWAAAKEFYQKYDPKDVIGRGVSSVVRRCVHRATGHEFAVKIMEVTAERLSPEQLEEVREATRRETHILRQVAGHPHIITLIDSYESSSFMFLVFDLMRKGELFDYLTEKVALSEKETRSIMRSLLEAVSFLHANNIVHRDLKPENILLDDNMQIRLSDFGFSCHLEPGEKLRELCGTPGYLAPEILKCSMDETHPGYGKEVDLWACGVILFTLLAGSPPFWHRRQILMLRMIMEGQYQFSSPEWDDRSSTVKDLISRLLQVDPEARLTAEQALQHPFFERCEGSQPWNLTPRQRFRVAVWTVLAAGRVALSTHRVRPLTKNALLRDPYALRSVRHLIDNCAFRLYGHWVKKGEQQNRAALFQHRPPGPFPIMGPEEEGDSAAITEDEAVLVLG
Mitogen-activated protein kinase 14 (Homo sapiens), sequence (Q16539 whole entry, canonical isoform): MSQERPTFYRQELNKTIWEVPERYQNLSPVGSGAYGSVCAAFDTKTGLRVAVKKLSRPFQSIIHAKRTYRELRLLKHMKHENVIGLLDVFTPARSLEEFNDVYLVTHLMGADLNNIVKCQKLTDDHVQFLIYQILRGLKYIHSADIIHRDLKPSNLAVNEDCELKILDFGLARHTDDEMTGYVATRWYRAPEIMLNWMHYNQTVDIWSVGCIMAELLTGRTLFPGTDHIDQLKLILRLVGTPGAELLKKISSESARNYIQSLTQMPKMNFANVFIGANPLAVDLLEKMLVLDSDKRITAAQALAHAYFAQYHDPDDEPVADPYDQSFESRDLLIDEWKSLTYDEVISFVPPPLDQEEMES

Cc1n[nH]c(C)c1-c1ccc2c(NC(=O)c3ccc(N4CCN(C)CC4)cc3)n[nH]c2c1
inhibition [1]: -0.3%
inhibition [2]: -1.7%
inhibition [3]: -3.3%
inhibition [4]: -6%

Cc1[nH]nc(C2CC2)c1-c1ccc2c(-c3ccc(N4CCN(C)CC4)nc3)n[nH]c2c1
inhibition [5]: 3.3%
inhibition [6]: 83.7%
inhibition [7]: 3.3%
inhibition [8]: 1.7%
inhibition [9]: 4%
inhibition [10]: -1.7%
inhibition [11]: -1.7%
inhibition [12]: 24.7%
inhibition [13]: -2.3%
inhibition [14]: -1.7%
inhibition [15]: 64.7%
inhibition [16]: 69.3%
inhibition [17]: -3.3%
inhibition [18]: -4%
inhibition [19]: -1.3%

COC(=O)Nc1cc(-c2c(C3CC3)n[nH]c2C)cc2[nH]ncc12
inhibition [20]: 5.7%
inhibition [21]: 5%
inhibition [22]: -4%
inhibition [23]: 7%
inhibition [24]: 0.7%
inhibition [25]: -2.7%
inhibition [26]: -4.3%
inhibition [27]: 0.7%
